Measured values published in patent US10696693B2, “Fused imidazole derivatives as TGF-beta inhibitors” (Rigel Pharmaceuticals, Inc., priority 2014, dated 2020).
Read-outs that look alike come from different tables or passages of the source.

Columns and labels:
GDF8 = assay: AlphaScreen SureFire p-SMAD3 (Ser423/425) assay, GDF8-stimulated cells; assay type: cell-based; details: Mus musculus
In short: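 Lysate (5 μL) went into 384-well shallow plates with 5 μL of Reaction Buffer, Activation Buffer and AlphaScreen Acceptor bead mix. Plates were sealed, kept dark and shaken for 2 hours at room temperature. Donor beads in dilution buffer (2 μL) were added for another 1½ hours, and p-SMAD3 signal was read on a Synergy-4 or Enspire reader.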

TGF-β = assay: AlphaScreen SureFire p-SMAD3 (Ser423/425) assay, TGF-β-stimulated cells; assay type: cell-based; details: Mus musculus
In short: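 The p-SMAD-3 (Ser423/425) SureFire assay measured phosphorylation of endogenous SMAD-3 in cell lysates. Cells were plated overnight in collagen-coated plates, exposed to three-fold serially diluted compounds for about 10 minutes, then stimulated with TGFβ. Lysates (5 μL) received acceptor bead mix for 2 hours, then donor beads for 1½ hours before AlphaScreen reading.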

[1] = MPC-11, p-SMAD3 (Ser423/425) AlphaScreen in cell lysate, MPC11, GDF8 stimulation, read-out: GDF8: inhibition of GDF8 signaling, GDF pSMAD (MPC11)
[2] = p-SMAD3 (Ser423/425) AlphaScreen in cell lysate, MPC-11, TGF-β stimulation, read-out: TGF-β: inhibition of TGF-β signaling, TGF-β pSMAD (MPC-11)
[3] = MPC-11, read-out: GDF8: inhibition of GDF8 signaling, GDF pSMAD (MPC11), p-SMAD3 (Ser423/425) AlphaScreen in cell lysate, GDF8 stimulation
[4] = MPC-11, read-out: TGF-β: inhibition of TGF-β signaling, TGF-β pSMAD (MPC-11), p-SMAD3 (Ser423/425) AlphaScreen in cell lysate, TGF-β stimulation

SMILES	IC50 (GDF8; [1]) [µM]	IC50 (TGF-β; [2]) [µM]	IC50 (GDF8; [3]) [µM]	IC50 (TGF-β; [4]) [µM]
Cc1ccccc1-c1nc2n(c1-c1ccc3nccnc3c1)CCC2 [Compound 306, 6-(2-(o-tolyl)-6,7-dihydro-5H-pyrrolo[1,2-a]imidazol-3-yl)quinoxaline]	> 1	> 1	–	–
COc1c(C)cc(-c2nc3n(c2-c2ccc4ncsc4c2)CCC3)cc1C [Compound 257, 6-(2-(4-methoxy-3,5-dimethylphenyl)-6,7-dihydro-5H-pyrrolo[1,2-a]imidazol-3-yl)benzo[d]thiazole]	> 1	> 1	–	–
Fc1cc(F)c(F)c(-c2nc3n(c2-c2ccc4ncnn4c2)CCC3)c1 [Compound 17, 6-(2-(2,3,5-trifluorophenyl)-6,7-dihydro-5H-pyrrolo[1,2-a]imidazol-3-yl)-[1,2,4]triazolo[1,5-a]pyridine]	0.1 to 1	> 1	–	–
Fc1ccc(-c2nc3occn3c2-c2ccc3ncccc3c2)c(F)c1 [Compound 158, 5-(quinolin-6-yl)-6-(2,4-difluorophenyl)imidazo[2,1-b]oxazole]	< 0.05	0.05 to 0.1	–	–
CN(C)CC1CCC2(CC1)Cc1nc(-c3ccc(F)cc3)c(-c3ccc4ncnn4c3)n1C2 (stereo not shown) [Compound 87, 1-(3′-([1,2,4]triazolo[1,5-a]pyridin-6-yl)-2′-(4-fluorophenyl)-5′H,7′H-spiro[cyclohexane-1,6′-pyrrolo[1,2-a]imidazol]-4-yl)-N,N-dimethylmethanamine]	> 1	> 1	–	–
Fc1ccc(-c2nc3occn3c2-c2ccc3cn[nH]c3c2)cc1 [Compound 128, 6-(4-fluorophenyl)-5-(1H-indazol-6-yl)imidazo[1,2-b]oxaozle]	0.1 to 1	0.1 to 1	–	–
Fc1cc(F)cc(-c2nc3n(c2-c2ccc4ncsc4c2)CCC3)c1 [Compound 232, 6-(2-(3,5-difluorophenyl)-6,7-dihydro-5H-pyrrolo[1,2-a]imidazol-3-yl)benzo[d]thiazole]	–	–	0.1 to 1	> 1
Fc1cc(F)c(-c2nc3n(c2-c2ccc4ncsc4c2)CCN3)cc1F [Compound 103, 6-(6-(2,4,5-trifluorophenyl)-2,3-dihydro-1H-imidazo[1,2-a]imidazol-5-yl)benzo[d]thiazole]	< 0.05	< 0.05	–	–
Fc1cc(F)cc(-c2nc3n(c2-c2ccc4ncccc4c2)CCC3)c1 [Compound 234, 6-(2-(3,5-difluorophenyl)-6,7-dihydro-5H-pyrrolo[1,2-a]imidazol-3-yl)quinoline]	–	–	> 1	> 1
COc1cccc(-c2nc3n(c2-c2ccc4nccn4c2)CCC3)c1 [Compound 5]	0.1 to 1	0.1 to 1	–	–
Cc1ccc(F)c(-c2nc3n(c2-c2ccc4ncnn4c2)CCC3)c1 [Compound 96, 6-(2-(2-fluoro-5-methylphenyl)-6,7-dihydro-5H-pyrrolo[1,2-a]imidazol-3-yl)-[1,2,4]triazolo[1,5-a]pyridine]	< 0.05	< 0.05	–	–
Cc1cc(F)c(Cl)cc1-c1nc2n(c1-c1ccc3nccn3c1)CCC2 [Compound 57, 6-(2-(5-chloro-4-fluoro-2-methylphenyl)-6,7-dihydro-5H-pyrrolo[1,2-a]imidazol-3-yl)imidazo[1,2-a]pyridine]	0.1 to 1	0.1 to 1	–	–
Fc1cc(F)c(-c2nc3occn3c2-c2ccc3nccn3c2)cc1F [Compound 148, 6-(2,4,5-trifluorophenyl)-5-(imidazo[1,2-a]pyridin-6-yl)imidazo[2,1-b]oxazole]	< 0.05	0.05 to 0.1	–	–
Cc1cc(-c2nc3n(c2-c2ccc4ncnn4c2)CCC3)c(F)cc1Cl [Compound 28, 6-(2-(4-chloro-2-fluoro-5-methylphenyl)-6,7-dihydro-5H-pyrrolo[1,2-c]imidazol-3-yl)-[1,2,4]triazolo[1,5-c]pyridine]	> 1	> 1	–	–
Fc1cc(F)c(F)c(-c2nc3n(c2-c2ccc4nccnc4c2)CCN3)c1 [Compound 111, 6-(6-(2,3,5-trifluorophenyl)-2,3-dihydro-1H-imidazo[1,2-a]imidazol-5-yl)quinoxaline]	< 0.05	< 0.05	–	–
Cc1cc(-c2nc3n(c2-c2ccc4ncccc4c2)CCC3)c(F)cc1F [Compound 271, 6-(2-(2,4-difluoro-5-methylphenyl)-6,7-dihydro-5H-pyrrolo[1,2-a]imidazol-3-yl)quinoline]	< 0.05	0.1 to 1	–	–
Fc1cc(-c2nc3n(c2-c2ccc4nccn4c2)CCC3)c(F)cc1Cl [Compound 19, 6-(2-(4-chloro-2,5-difluorophenyl)-6,7-dihydro-5H-pyrrolo[1,2-a]imidazol-3-yl)imidazo[1,2-a]pyridine]	> 1	> 1	–	–
Fc1ccc(-c2nc3occn3c2-c2ccc3ncsc3c2)c(F)c1 [Compound 156, 5-(benzo[d]thiazol-6-yl)-6-(2,4-difluorophenyl)imidazo[2,1-b]oxazole]	< 0.05	0.05 to 0.1	–	–

SMILES	IC50 (GDF8; [1]) [µM]	IC50 (TGF-β; [2]) [µM]	IC50 (GDF8; [3]) [µM]	IC50 (TGF-β; [4]) [µM]
COc1ccc(-c2nc3n(c2-c2ccc4ncnn4c2)CCC3)cc1 [Compound 95, 6-(2-(4-methoxyphenyl)-6,7-dihydro-5H-pyrrolo[1,2-a]imidazol-3-yl)-[1,2,4]triazolo[1,5-a]pyridine]	–	–	> 1	> 1
Fc1ccc(-c2nc3n(c2-c2ccc4nccn4c2)CCC3)cc1 [Compound 2]	0.1 to 1	0.1 to 1	–	–
Cc1cc(-c2nc3n(c2-c2ccc4ncnn4c2)CCC3)cc(C)c1Cl [Compound 24, 6-(2-(4-chloro-3,5-dimethylphenyl)-6,7-dihydro-5H-pyrrolo[1,2-a]imidazol-3-yl)-[1,2,4]triazolo[1,5-a]pyridine]	> 1	> 1	–	–
Cc1cccc(-c2nc3n(c2-c2ccc4ncsc4c2)CCC3)c1 [Compound 170, 6-(2-(m-tolyl)-6,7-dihydro-5H-pyrrolo[1,2-a]imidazol-3-yl)benzo[d]thiazole]	< 0.05	0.05 to 0.1	–	–
Cc1ccc(-c2nc3n(c2-c2ccc4nccnc4c2)CCC3)c(F)c1F [Compound 250, 6-(2-(2,3-difluoro-4-methylphenyl)-6,7-dihydro-5H-pyrrolo[1,2-a]imidazol-3-yl)quinoxaline]	> 1	> 1	–	–
Cc1cc(-c2nc3n(c2-c2ccc4nccn4c2)CCC3)cc(C)c1Cl [Compound 25, 6-(2-(4-chloro-3,5-dimethylphenyl)-6,7-dihydro-5H-pyrrolo[1,2-a]imidazol-3-yl)imidazo[1,2-a]pyridine]	> 1	> 1	–	–
Fc1cc(F)c(F)c(-c2nc3n(c2-c2ccc4[nH]ncc4c2)CCC3)c1 [Compound 236, 5-(2-(2,3,5-trifluorophenyl)-6,7-dihydro-5H-pyrrolo[1,2-a]imidazol-3-yl)-1H-indazole]	–	–	0.1 to 1	> 1
Cc1cc(-c2nc3n(c2-c2ccc4ncccc4c2)CCC3)cc(C)c1F [Compound 279]	> 1	> 1	–	–
Cc1c(-c2nc3n(c2-c2ccc4nccnc4c2)CCC3)ccc(F)c1F [Compound 262, 6-(2-(3,4-difluoro-2-methylphenyl)-6,7-dihydro-5H-pyrrolo[1,2-a]imidazol-3-yl)quinoxaline]	0.1 to 1	> 1	–	–
COc1cccc(-c2nc3n(c2-c2ccc4ncsc4c2)CCC3)c1 [Compound 187, 6-(2-(3-methoxyphenyl)-6,7-dihydro-5H-pyrrolo[1,2-a]imidazol-3-yl)benzo[d]thiazole]	–	–	0.05 to 0.1	0.1 to 1
NC(=O)c1cnc2ccc(-c3c(-c4ccc(F)c(Cl)c4)nc4n3CCC4)cn12 [Compound 51, 6-(2-(3-chloro-4-fluorophenyl)-6,7-dihydro-5H-pyrrolo[1,2-c]imidazol-3-yl)imidazo[1,2-c]pyridine-3-carboxamide]	< 0.05	0.05 to 0.1	–	–
Cc1cc(-c2nc3n(c2-c2ccc4ncccc4c2)CCC3)c(C)cc1F [Compound 311, 6-(2-(4-fluoro-2,5-dimethylphenyl)-6,7-dihydro-5H-pyrrolo[1,2-a]imidazol-3-yl)quinoline]	0.1 to 1	> 1	–	–
Fc1ccc(-c2nc3occn3c2-c2ccc3nccn3c2)c(F)c1F [Compound 163, 5-(imidazo[1,2-a]pyridin-6-yl)-6-(2,3,4-trifluorophenyl)imidazo[2,1-b]oxazole]	0.05 to 0.1	0.1 to 1	–	–
Fc1ccc(-c2nc3occn3c2-c2ccc3nccnc3c2)cc1F [Compound 136, 6-(3,4-difluorophenyl)-5-(quinoxalin-6-yl)imidazo[2,1-b]oxaole]	0.1 to 1	0.1 to 1	–	–
Fc1cccc(F)c1-c1nc2n(c1-c1ccc3nccn3c1)CCC2 [Compound 11]	0.1 to 1	> 1	–	–
Cc1ccccc1-c1nc2n(c1-c1ccc3ncnn3c1)CCC2 [Compound 62, 6-(2-(2-methylphenyl)-6,7-dihydro-5H-pyrrolo[1,2-a]imidazol-3-yl)-[1,2,4]triazolo[1,5-a]pyridine]	–	–	> 1	> 1
Clc1ccc(Cl)c(-c2nc3n(c2-c2ccc4ncnn4c2)CCC3)c1 [Compound 92, 6-(2-(2,5-dichlorophenyl)-6,7-dihydro-5H-pyrrolo[1,2-a]imidazol-3-yl)-[1,2,4]triazolo[1,5-a]pyridine]	–	–	0.05 to 0.1	0.1 to 1
